Laboratory results reported in patent US20260201008A1, “SECRETIN-DERIVED GLP1R SELECTIVE AGONISTS” (GUBRA A/S, priority 2023, published 2026).
Numbered stars: 1 amine (or outer) side, 2 acyl side, 3 side chain; on linkers, the order of the positions; unused ones are H or OH. Square brackets hold non-standard residues; d marks the D form. Side chains are listed from the residue outwards. Peptide text beside a SMILES is read from it. * marks the point of attachment. C20 diacid = O=C(O)CCCCCCCCCCCCCCCCCCC(=O)*; γGlu = O=C(O)[C@H](CCC(=O)[*:2])N[*:1]; AEEA = NCCOCCOCC(=O)O; Aib = CC(C)(N)C(=O)O

Experiments:
[1] = Turbidity of crude library peptides (absorbance at 600 nm); format: physicochemical; settings: Physical stability of peptides
Procedure, shortened: (§1)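 Turbidity is the absorbance at 600 nm, taken before heating. Fibril signal is the mean ThT emission at 480 nm (450 nm excitation), read every 10 min over 72 h at 40° C with 700 rpm shaking between reads. Peptides at 267 μM, pH 4.0 acetate or pH 7.0 phosphate buffer (50 mM), 4 μM ThT final.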

[2] = Fibril formation of crude library peptides (Thioflavin T); format: physicochemical; set-up: key: average ThT fluorescence emission at 480 nm (ex 450 nm), raw units; settings: Physical stability of peptides
Procedure, shortened: as §1

GLP1R = GLP1R (Homo sapiens, UniProt P43220); test: hGLP1R potency, cAMP accumulation in CHO-K1 cells stably overexpressing hGLP1R; format: cell-based; set-up: host or cells: CHO-K1; settings: for Selectivity: SCTR EC50/GLP1R EC50 ratio; for EC50: cAMP accumulation, CHO-K1 cells overexpressing hGLP1R, read-out: pEC50 hGLPR1 (converted)
Sequence of GLP1R (P43220 24-463): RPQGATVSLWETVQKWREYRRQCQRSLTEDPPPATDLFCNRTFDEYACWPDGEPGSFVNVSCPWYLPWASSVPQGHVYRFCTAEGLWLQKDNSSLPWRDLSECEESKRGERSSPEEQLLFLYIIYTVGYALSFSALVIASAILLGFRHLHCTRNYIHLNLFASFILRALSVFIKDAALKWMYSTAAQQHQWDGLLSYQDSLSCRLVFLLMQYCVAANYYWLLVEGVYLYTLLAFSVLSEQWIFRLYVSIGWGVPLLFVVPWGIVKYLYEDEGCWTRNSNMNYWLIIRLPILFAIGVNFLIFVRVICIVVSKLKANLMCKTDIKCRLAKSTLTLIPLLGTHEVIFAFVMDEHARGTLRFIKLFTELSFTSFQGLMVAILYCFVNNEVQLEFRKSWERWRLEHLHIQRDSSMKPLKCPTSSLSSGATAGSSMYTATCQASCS
Procedure, shortened: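 2000 cells/well, DPBS + 0.05% casein + 0.5 mM IBMX; 30 min RT stimulation; HTRF cAMP detection after 1 h. Purified: 3-fold ×11, n=2; crude: 10-fold ×5, n=1. EC50 by variable-slope fit.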

SCTR = SCTR (Homo sapiens, UniProt P47872); test: hSCTR potency, cAMP accumulation in CHO-K1 cells stably overexpressing hSCTR; format: cell-based; set-up: alternatively Euroscreen ES-712-AF; FAST-0161L; host or cells: CHO-K1; settings: cAMP accumulation, CHO-K1 cells overexpressing hSCTR; read-out: pEC50 hSCTR (converted)
Sequence of SCTR (P47872 23-440): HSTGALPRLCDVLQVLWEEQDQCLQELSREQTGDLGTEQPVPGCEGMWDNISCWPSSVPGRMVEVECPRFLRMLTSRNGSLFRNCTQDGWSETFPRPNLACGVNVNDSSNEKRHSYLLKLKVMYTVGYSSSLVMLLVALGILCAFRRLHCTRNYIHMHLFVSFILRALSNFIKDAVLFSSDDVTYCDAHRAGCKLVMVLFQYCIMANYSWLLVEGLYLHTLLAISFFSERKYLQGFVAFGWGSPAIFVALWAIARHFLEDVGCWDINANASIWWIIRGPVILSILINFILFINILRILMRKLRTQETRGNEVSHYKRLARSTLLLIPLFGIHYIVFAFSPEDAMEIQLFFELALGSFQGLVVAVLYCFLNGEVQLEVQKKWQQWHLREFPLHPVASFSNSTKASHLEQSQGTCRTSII
Procedure, shortened: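 Thawed CHO-K1 cells carrying stable hSCTR are plated into casein/IBMX buffer (0.05%, 0.5 mM), dosed immediately for 30 min at room temperature, then cAMP is detected by TR-FRET. Purified peptides run as 11 three-fold dilutions in duplicate, and curves are fitted with variable slope.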

| Turbidity (pH 7) [1] | Fibril formation [2] | Selectivity (GLP1R) | EC50 (GLP1R) | EC50 (SCTR) | Structure (SMILES) |
| --- | --- | --- | --- | --- | --- |
| 0.08 | 11371 | 5429 | 0.02 nM | 126 nM | CC(C)C[C@H](NC(=O)[C@H](Cc1ccccc1)NC(=O)[C@H](CCCNC(=N)N)NC(=O)[C@H](CCC(N)=O)NC(=O)[C@@H](NC(=O)[C@H](C)NC(=O)[C@H](C)NC(=O)C(C)(C)NC(=O)[C@H](CCC(=O)O)NC(=O)[C@H](CCCCNC(=O)COCCOCCNC(=O)COCCOCCNC(=O)CC[C@H](NC(=O)CCCCCCCCCCCCCCCCCCC(=O)O)C(=O)O)NC(=O)[C@H](CC(C)C)NC(=O)[C@@H](NC(=O)[C@H](CO)NC(=O)[C@@H](NC(=O)[C@H](CC(=O)O)NC(=O)[C@H](CO)NC(=O)[C@@H](NC(=O)[C@H](Cc1ccccc1)NC(=O)[C@@H](NC(=O)CNC(=O)[C@H](CCC(=O)O)NC(=O)C(C)(C)NC(=O)[C@@H](N)Cc1c[nH]cn1)[C@@H](C)O)[C@@H](C)O)C(C)C)C(C)C)[C@@H](C)O)C(=O)N[C@@H](CCC(=O)O)C(=O)N[C@@H](Cc1c[nH]cn1)C(=O)N[C@@H](CC(C)C)C(=O)N[C@H](C(N)=O)C(C)C [compound 49] (H-H[Aib]EGTFTSDVSVLK([AEEA-AEEA-γGlu-C20 diacid])E[Aib]AATQRFLEHLV-NH2) |
| 0.09 | 12284 | 3425 | 0.0158 nM | 50.1 nM | CC(C)C[C@H](NC(=O)[C@H](Cc1ccccc1)NC(=O)[C@H](CCCNC(=N)N)NC(=O)[C@H](CCC(N)=O)NC(=O)[C@@H](NC(=O)[C@H](C)NC(=O)[C@H](C)NC(=O)C(C)(C)NC(=O)[C@H](CCC(=O)O)NC(=O)[C@H](CCCCNC(=O)COCCOCCNC(=O)COCCOCCNC(=O)CC[C@H](NC(=O)CCCCCCCCCCCCCCCCCCC(=O)O)C(=O)O)NC(=O)[C@H](CC(C)C)NC(=O)[C@H](CCCNC(=N)N)NC(=O)[C@H](CO)NC(=O)[C@@H](NC(=O)[C@H](CC(=O)O)NC(=O)[C@H](CO)NC(=O)[C@@H](NC(=O)[C@H](Cc1ccccc1)NC(=O)[C@@H](NC(=O)CNC(=O)[C@H](CCC(=O)O)NC(=O)C(C)(C)NC(=O)[C@@H](N)Cc1c[nH]cn1)[C@@H](C)O)[C@@H](C)O)C(C)C)[C@@H](C)O)C(=O)N[C@@H](CCC(=O)O)C(=O)N[C@@H](Cc1c[nH]cn1)C(=O)N[C@@H](CC(C)C)C(=O)N[C@H](C(N)=O)C(C)C [compound 50] (H-H[Aib]EGTFTSDVSRLK([AEEA-AEEA-γGlu-C20 diacid])E[Aib]AATQRFLEHLV-NH2) |
| 0.08 | 5164 | 10988 | 0.00501 nM | 63.1 nM | CC(C)C[C@H](NC(=O)[C@H](Cc1ccccc1)NC(=O)[C@H](CCCNC(=N)N)NC(=O)[C@H](CCC(N)=O)NC(=O)[C@@H](NC(=O)[C@H](C)NC(=O)[C@H](C)NC(=O)[C@H](CCC(=O)O)NC(=O)[C@H](CCC(=O)O)NC(=O)[C@H](CCCCNC(=O)COCCOCCNC(=O)COCCOCCNC(=O)CC[C@H](NC(=O)CCCCCCCCCCCCCCCCCCC(=O)O)C(=O)O)NC(=O)[C@H](CC(C)C)NC(=O)[C@@H](NC(=O)[C@H](CO)NC(=O)[C@@H](NC(=O)[C@H](CC(=O)O)NC(=O)[C@H](CO)NC(=O)[C@@H](NC(=O)[C@H](Cc1ccccc1)NC(=O)[C@@H](NC(=O)CNC(=O)[C@H](CCC(=O)O)NC(=O)C(C)(C)NC(=O)[C@@H](N)Cc1c[nH]cn1)[C@@H](C)O)[C@@H](C)O)C(C)C)C(C)C)[C@@H](C)O)C(=O)N[C@@H](CCC(=O)O)C(=O)N[C@@H](Cc1c[nH]cn1)C(=O)N[C@@H](CC(C)C)C(=O)N[C@H](C(N)=O)C(C)C [compound 53] (H-H[Aib]EGTFTSDVSVLK([AEEA-AEEA-γGlu-C20 diacid])EEAATQRFLEHLV-NH2) |

The next lines start with the compound.

| Structure (SMILES) | Turbidity (pH 7) [1] | Fibril formation [2] | Selectivity (GLP1R) | EC50 (GLP1R) | EC50 (SCTR) |
| --- | --- | --- | --- | --- | --- |
| CC(C)C[C@H](NC(=O)[C@H](Cc1ccccc1)NC(=O)[C@H](CCCNC(=N)N)NC(=O)[C@H](CCC(N)=O)NC(=O)[C@H](CCC(=O)O)NC(=O)[C@H](C)NC(=O)[C@H](C)NC(=O)[C@H](CCC(=O)O)NC(=O)[C@H](CCC(=O)O)NC(=O)[C@H](CCCCNC(=O)COCCOCCNC(=O)COCCOCCNC(=O)CC[C@H](NC(=O)CCCCCCCCCCCCCCCCCCC(=O)O)C(=O)O)NC(=O)[C@H](CC(C)C)NC(=O)[C@H](CCC(=O)O)NC(=O)[C@H](CO)NC(=O)[C@@H](NC(=O)[C@H](CC(=O)O)NC(=O)[C@H](CO)NC(=O)[C@@H](NC(=O)[C@H](Cc1ccccc1)NC(=O)[C@@H](NC(=O)CNC(=O)[C@H](CCC(=O)O)NC(=O)C(C)(C)NC(=O)[C@@H](N)Cc1c[nH]cn1)[C@@H](C)O)[C@@H](C)O)C(C)C)C(=O)N[C@@H](CCC(=O)O)C(=O)N[C@@H](Cc1c[nH]cn1)C(=O)N[C@@H](CC(C)C)C(=O)N[C@H](C(N)=O)C(C)C [compound 51] (H-H[Aib]EGTFTSDVSELK([AEEA-AEEA-γGlu-C20 diacid])EEAAEQRFLEHLV-NH2) | 0.09 | 8475 | 63009 | 0.0316 nM | 2000 nM |
| CC(C)C[C@H](NC(=O)[C@H](Cc1ccccc1)NC(=O)[C@H](CCCNC(=N)N)NC(=O)[C@H](CCC(N)=O)NC(=O)[C@H](CO)NC(=O)[C@H](C)NC(=O)[C@H](C)NC(=O)[C@H](Cc1ccccc1)NC(=O)[C@H](CCC(=O)O)NC(=O)[C@H](CCCCNC(=O)COCCOCCNC(=O)COCCOCCNC(=O)CC[C@H](NC(=O)CCCCCCCCCCCCCCCCCCC(=O)O)C(=O)O)NC(=O)[C@H](CC(C)C)NC(=O)[C@H](CCCNC(=N)N)NC(=O)[C@H](CO)NC(=O)[C@@H](NC(=O)[C@H](CC(=O)O)NC(=O)[C@H](CO)NC(=O)[C@@H](NC(=O)[C@H](Cc1ccccc1)NC(=O)[C@@H](NC(=O)CNC(=O)[C@H](CCC(=O)O)NC(=O)C(C)(C)NC(=O)[C@@H](N)Cc1c[nH]cn1)[C@@H](C)O)[C@@H](C)O)C(C)C)C(=O)N[C@@H](CCC(=O)O)C(=O)N[C@@H](Cc1c[nH]cn1)C(=O)N[C@@H](CC(C)C)C(=O)N[C@H](C(N)=O)C(C)C [compound 52] (H-H[Aib]EGTFTSDVSRLK([AEEA-AEEA-γGlu-C20 diacid])EFAASQRFLEHLV-NH2) | 0.08 | 241858 | 3341 | 0.126 nM | 398 nM |
| CC(C)C[C@H](NC(=O)[C@H](Cc1ccccc1)NC(=O)[C@H](CCCNC(=N)N)NC(=O)[C@H](CCC(N)=O)NC(=O)[C@@H](NC(=O)[C@H](C)NC(=O)[C@H](C)NC(=O)[C@@H](NC(=O)[C@H](CCC(=O)O)NC(=O)[C@H](CCCCNC(=O)COCCOCCNC(=O)COCCOCCNC(=O)CC[C@H](NC(=O)CCCCCCCCCCCCCCCCCCC(=O)O)C(=O)O)NC(=O)[C@H](CC(C)C)NC(=O)[C@H](CCC(=O)O)NC(=O)[C@H](CO)NC(=O)[C@@H](NC(=O)[C@H](CC(=O)O)NC(=O)[C@H](CO)NC(=O)[C@@H](NC(=O)[C@H](Cc1ccccc1)NC(=O)[C@@H](NC(=O)CNC(=O)[C@H](CCC(=O)O)NC(=O)C(C)(C)NC(=O)[C@@H](N)Cc1c[nH]cn1)[C@@H](C)O)[C@@H](C)O)C(C)C)[C@@H](C)O)[C@@H](C)O)C(=O)N[C@@H](CCC(=O)O)C(=O)N[C@@H](Cc1c[nH]cn1)C(=O)N[C@@H](CC(C)C)C(=O)N[C@H](C(N)=O)C(C)C [compound 54] (H-H[Aib]EGTFTSDVSELK([AEEA-AEEA-γGlu-C20 diacid])ETAATQRFLEHLV-NH2) | 0.09 | 7756 | 11020 | 0.0126 nM | 126 nM |
